According to patent US9849138B2, “1,4-benzodiazepone-2,5-diones and related compounds with therapeutic properties” (The Regents of the University of Michigan, priority 2009, dated 2017):
Each block holds one compound with its values, some of them ahead of it.

Experiments:
[1] = molecular target: ROCK-II (h, amino acids 11-552) (Homo sapiens (Human), UniProt O75116); experiment: ROCK-II (h) inhibition assay; assay type: biochemical; conditions: [γ-32P-ATP] filter assay, 40 minutes at room temperature, read-out: ROCK2 IC50
Procedure: ROCK-II (h) Inhibition Assay:
In a final reaction volume of 25 μL, ROCK-II (h, amino acids 11-552) (5-10 mU) was incubated with 50 mM Tris pH 7.5, 0.1 mM EGTA, 30 μM […], 10 mM magnesium acetate and [γ-^32P-ATP] (specific activity approx. 500 cpm/pmol, concentration as required). The reaction was initiated by the addition of the MgATP mix. After incubation for 40 minutes at room temperature, the reaction was stopped by the addition of 5 μL of a 3% phosphoric acid solution. 10 μL of the reaction was then spotted onto a P30 filter-mat and washed three times for 5 minutes in 75 mM phosphoric acid and once in methanol prior to drying and scintillation counting.

[2] = system: ventricular hypertrophy and function; conditions: Dahl salt-sensitive rats; cited from earlier work
[3] = system: neointimal formation; conditions: rats; cited from earlier work
[4] = system: ROCK; conditions: competition with intracellular micromolar ATP; cited from earlier work
[5] = system: blood pressure; conditions: spontaneously hypertensive, renal hypertensive and deoxycortisone acetate salt hypertensive rats; cited from earlier work
[6] = system: coronary stenosis; conditions: porcine, long term treatment; cited from earlier work
[7] = system: infarct size and neurologic deficit; conditions: rat stroke model; cited from earlier work

Chain of ROCK-II (h, amino acids 11-552) (O75116 11-552): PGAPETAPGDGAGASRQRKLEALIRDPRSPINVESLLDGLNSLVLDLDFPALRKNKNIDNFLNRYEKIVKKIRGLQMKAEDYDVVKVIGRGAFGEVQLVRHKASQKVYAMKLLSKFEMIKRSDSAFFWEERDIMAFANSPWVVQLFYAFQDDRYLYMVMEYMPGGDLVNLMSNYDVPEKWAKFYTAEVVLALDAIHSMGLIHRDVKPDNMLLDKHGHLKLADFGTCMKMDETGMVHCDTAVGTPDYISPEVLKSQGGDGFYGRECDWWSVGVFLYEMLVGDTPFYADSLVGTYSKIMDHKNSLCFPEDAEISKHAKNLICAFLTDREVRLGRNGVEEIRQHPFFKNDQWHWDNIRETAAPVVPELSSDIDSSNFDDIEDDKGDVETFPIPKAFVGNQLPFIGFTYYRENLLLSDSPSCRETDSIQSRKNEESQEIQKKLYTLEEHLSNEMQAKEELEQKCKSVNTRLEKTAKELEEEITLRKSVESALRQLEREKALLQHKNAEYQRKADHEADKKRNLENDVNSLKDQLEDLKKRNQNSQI

IC50 [1]: > 10000 nM
Compound: C[C@@]1(Cc2ccc(-c3ccncc3)cc2)NC(=O)c2cc(Cl)ccc2NC1=O [Compound 2, (S)-7-chloro-3-methyl-3-(4-(pyridin-4-yl)benzyl)-3,4-dihydro-1H-benzo[e][1,4]diazepine-2,5-dione]

IC50 [1]: 1000 nM
Compound: CN1C(=O)[C@@H](Cc2ccc(-c3ccncc3)cc2)NC(=O)c2cccc(Cl)c21 [Compound 5, (R)-9-chloro-1-methyl-3-(4-(pyridin-4-yl)benzyl)-3,4-dihydro-1H-benzo[e][1,4]diazepine-2,5-dione]

Compound: C[C@@H](N)[C@H]1CC[C@H](C(=O)Nc2ccncc2)CC1 [Compound Y-27632, Y-27632]
effect on ventricular hypertrophy and function [2]: improve ventricular hypertrophy and function
effect on neointimal formation [3]: inhibited neointimal formation
decrease in activity in cellular assays as compared to in vitro activities [4]: 100-1,000 fold
effect on blood pressure [5]: significantly decrease blood pressure

Compound: O=S(=O)(c1cccc2cnccc12)N1CCCNCC1 [fasudil]
effect on coronary stenosis [6]: progressively reduce coronary stenosis
effect on infarct size and neurologic deficit [7]: reduce both the infarct size and neurologic deficit
